Source: patent publication US4533665A, “[[Bis(aryl)methylene]-1-piperidinyl]alkyl-pyrimidinones” (Janssen Pharmaceutica, priority 1984, dated 1985)
Counter-ions that a name gives are not always drawn.

Molecular target: T1, S2-receptor (Rattus norvegicus, UniProt P14842)
T1 construct: Caudal arteries from fasted male rats; from tissue; host or cells: rat caudal artery, helical strips
Experiment: antagonistic activity on the effect of serotonin on the caudal artery of the rat (caudal artery test)
Settings: rat caudal artery strips; serotonin 40 ng/ml; 5 minutes after adding the drug; read-out: ED50 (minimal concentration which reduces the amplitude of the serotonin-induced contraction to at least 50% of its normal value) (converted)
Protocol: ANTAGONISTIC ACTIVITY ON THE EFFECT OF SEROTONIN ON THE CAUDAL ARTERY OF THE RAT
Caudal arteries from fasted male rats (210-235 g) were used in the test. […] Submaximal contractions of the arterial strips were produced by adding single doses of serotonin (40 ng/ml) to the organ bath for 2 minutes with each time an interval of 10 minutes. The amplitude of the contraction was measured before and 5 minutes after adding the drug. After washing out, the agonist was added again three times in order to see whether the contraction was restored and normalized. […] In this connection the ED50 -values are the minimal concentrations of the concerned drugs which reduce the amplitude of the contraction to at least 50% of its normal value.

T1 sequence (P14842 whole entry): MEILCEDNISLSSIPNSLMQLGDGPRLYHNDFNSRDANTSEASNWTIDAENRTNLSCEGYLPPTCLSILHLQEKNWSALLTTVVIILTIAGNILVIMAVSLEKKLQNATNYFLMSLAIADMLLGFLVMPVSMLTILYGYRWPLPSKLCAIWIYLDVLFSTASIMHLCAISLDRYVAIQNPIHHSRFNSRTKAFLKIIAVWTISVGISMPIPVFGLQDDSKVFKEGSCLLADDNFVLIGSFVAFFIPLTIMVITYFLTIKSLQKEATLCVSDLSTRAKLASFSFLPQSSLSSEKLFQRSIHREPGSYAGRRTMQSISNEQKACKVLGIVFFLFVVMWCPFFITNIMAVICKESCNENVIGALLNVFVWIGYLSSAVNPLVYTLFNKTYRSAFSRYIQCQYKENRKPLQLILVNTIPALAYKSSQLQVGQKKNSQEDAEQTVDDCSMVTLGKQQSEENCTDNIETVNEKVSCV

| IC50 [pM] | Compound |
| --- | --- |
| 2.76 | Cc1nc2ccccn2c(=O)c1CCN1CCC(=C(c2ccc(F)cc2)c2ccc(F)cc2)CC1 [Compound 2] |
| 2.65 | Cc1cccc(C(=C2CCN(CCc3c(C)nc4n(c3=O)CCCS4)CC2)c2ccc(F)cc2)c1 [Compound 121] |
| 0.654 | Cc1cccc(C(=C2CCN(CCc3c(C)nc4n(c3=O)CCCS4)CC2)c2ccc(F)cc2)c1 [Compound 123] |
| 0.678 | Cc1ccc(C(=C2CCN(CCc3c(C)nc4n(c3=O)CCCS4)CC2)c2ccccc2)cc1 [Compound 128] |
| 2.76 | Cc1ccc(C(=C2CCN(CCc3c(C)nc4n(c3=O)CCCC4)CC2)c2ccc(F)cc2)cc1 [Compound 46] |
| < 4.91 | Cc1nc2sccn2c(=O)c1CCN1CCC(=C(c2ccccc2)c2cccc(C(F)(F)F)c2)CC1 [Compound 89] |
| 2.82 | Cc1nc2sccn2c(=O)c1CCN1CCC(=C(c2ccc(F)cc2)c2cccnc2)CC1 [Compound 53] |
| 1.14 | Cc1nc2scc(C)n2c(=O)c1CCN1CCC(=C(c2ccc(O)cc2)c2ccc(F)cc2)CC1 [Compound 23, 6-[2-[4-[(4-fluorophenyl)-(4-hydroxyphenyl)methylene]-1-piperidinyl]ethyl]-3,7-dimethyl-5H-thiazolo[3,2-a]pyrimidin-5-one] |
| 2.56 | Cc1nc2ccccn2c(=O)c1CCN1CCC(=C(c2ccc(F)cc2)c2ccc(Cl)cc2)CC1 [Compound 13] |
| 1.51 | Cc1nc2scc(C)n2c(=O)c1CCN1CCC(=C(c2ccccc2)c2ccc(O)cc2)CC1 [Compound 72] |
| 0.705 | Cc1ccccc1C(=C1CCN(CCc2c(C)nc3n(c2=O)CCCC3)CC1)c1ccccc1 [Compound 92] |
| 2.66 | Cc1nc2ccccn2c(=O)c1CCN1CCC(=C(c2ccc(O)cc2)c2ccc(F)cc2)CC1 [Compound 20] |
| < 4.96 | Cc1nc2ccccn2c(=O)c1CCN1CCC(=C(c2ccccc2)c2cccc(C(F)(F)F)c2)CC1 [Compound 87] |
| 6.11 | Cc1nc2n(c(=O)c1CCN1CCC(=C(c3ccc(F)cc3)c3cccnc3)CC1)CCCC2 [Compound 54] |
| 2.68 | Cc1ccc(C(=C2CCN(CCc3c(C)nc4n(c3=O)CCCS4)CC2)c2ccc(C)cc2)cc1 [Compound 108, 7-[2-[4-[bis(4-methylphenyl)methylene]-1-piperidinyl]ethyl]-3,4-dihydro-8-methyl-2H,6H-pyrimido[2,1-b][1,3]thiazin-6-one] |
| 2.73 | Cc1nc2n(c(=O)c1CCN1CCC(=C(c3ccccc3)c3ccc(F)cc3)CC1)CCCS2 [Compound 115] |
| 1.14 | Cc1ccc(C(=C2CCN(CCc3c(C)nc4n(c3=O)CCCS4)CC2)c2ccc(F)cc2)cc1 [Compound 40] |
| 0.378 | Cc1nc2sccn2c(=O)c1CCN1CCC(=C(c2ccc(O)cc2)c2ccc(F)cc2)CC1 [Compound 24] |
| 2.09 | Cc1nc2n(c(=O)c1CCN1CCC(=C(c3ccc(F)cc3)c3cccc(C(F)(F)F)c3)CC1)CCCC2 [Compound 140, 3-[2-[4-[(4-fluorophenyl)[3-(trifluoromethyl)phenyl]methylene]-1-piperidinyl]ethyl]-6,7,8,9-tetrahydro-2-methyl-4H-pyrido[1,2-a]pyrimidin-4-one dihydrochloride] |
| 2.82 | Cc1nc2n(c(=O)c1CCN1CCC(=C(c3ccccc3)c3ccc(F)cc3)CC1)CCS2 [Compound 116] |

| IC50 [pM] | Compound |
| --- | --- |
| 2.44 | Cc1nc2ccccn2c(=O)c1CCN1CCC(=C(c2ccc(F)cc2)c2ccc(Br)cc2)CC1 [Compound 45] |
| 0.705 | Cc1ccc(C(=C2CCN(CCc3c(C)nc4n(c3=O)CCCC4)CC2)c2ccccc2)cc1 [Compound 71] |
| 2.62 | Cc1nc2n(c(=O)c1CCN1CCC(=C(c3ccc(F)cc3)c3ccc(Cl)cc3)CC1)CCS2 [Compound 22] |
| 1.29 | Cc1nc2ccccn2c(=O)c1CCN1CCC(=C(c2ccc(F)cc2)c2cccc(Cl)c2)CC1 [Compound 16] |
| 1.35 | Cc1cccc(C(=C2CCN(CCc3c(C)nc4ccccn4c3=O)CC2)c2ccc(F)cc2)c1 [Compound 15] |
| 1.24 | Cc1nc2scc(C)n2c(=O)c1CCN1CCC(=C(c2ccc(F)cc2)c2cccc(Cl)c2)CC1 [Compound 7] |
| 0.323 | Cc1nc2sccn2c(=O)c1CCN1CCC(=C(c2ccccc2)c2ccc(F)cc2)CC1 [Compound 139, 6-[2-[4-[(4-fluorophenyl)phenylmethylene]-1-piperidinyl]ethyl]-7-methyl-5H-thiazolo[3,2-a]pyrimidin-5-one monohydrochloride] |
| 0.633 | Cc1nc2sc(C)c(C)n2c(=O)c1CCN1CCC(=C(c2ccc(F)cc2)c2ccc(F)cc2)CC1 [Compound 127] |
| 2.45 | Cc1nc2n(c(=O)c1CCN1CCC(=C(c3ccccc3)c3ccc(F)cc3)CC1)CCCC2 [Compound 137, 3-[2-[4-[(4-fluorophenyl)phenylmethylene]-1-piperidinyl]ethyl]-6,7,8,9-tetrahydro-2-methyl-4H-pyrido[1,2-a]pyrimidin-4-one dihydrochloride] |
| 4.79 | Cc1nc2ccccn2c(=O)c1CCN1CCC(=C(c2ccc(F)cc2)c2cccc(C(F)(F)F)c2)CC1 [Compound 31] |
| 1.28 | Cc1nc2sccn2c(=O)c1CCN1CCC(=C(c2ccc(F)cc2)c2cccc(Cl)c2)CC1 [Compound 6] |
| 0.648 | Cc1nc2n(c(=O)c1CCN1CCC(=C(c3ccc(F)cc3)c3ccc(F)cc3)CC1)CCCS2 [Compound 29] |
| 1.18 | Cc1nc2n(c(=O)c1CCN1CCC(=C(c3ccc(F)cc3)c3cccc(F)c3)CC1)CCCC2 [Compound 30] |
| 2.84 | Cc1nc2sccn2c(=O)c1CCN1CCC(=C(c2ccccc2)c2ccc(O)cc2)CC1 [Compound 80] |
| 1.17 | Cc1nc2n(c(=O)c1CCN1CCC(=C(c3ccc(F)cc3)c3ccc(F)cc3)CC1)CCS2 [Compound 113] |
| 5.58 | COC1CN(CCc2c(C)nc3ccccn3c2=O)CCC1=C(c1ccc(F)cc1)c1ccc(F)cc1 (centres unmarked) [Compound 62] |
| 2.35 | Cc1nc2scc(C)n2c(=O)c1CCN1CCC(=C(c2ccc(F)cc2)c2ccc(Br)cc2)CC1 [Compound 32] |
| 1.19 | Cc1ccc(C(=C2CCN(CCc3c(C)nc4sccn4c3=O)CC2)c2ccc(C)cc2)cc1 [Compound 26] |
| 1.34 | Cc1nc2ccccn2c(=O)c1CCN1CCC(=C(c2ccc(F)cc2)c2ccc(F)cc2)CC1 [Compound 58] |
| 2.86 | Cc1nc2ccccn2c(=O)c1CCN1CCC(=C(c2ccc(F)cc2)c2cccnc2)CC1 [Compound 57] |

| IC50 [pM] | Compound |
| --- | --- |
| 4.51 | Cc1nc2ccccn2c(=O)c1CCN1CCC(=C(c2ccc(F)cc2)c2ccc(F)cc2)C(O)C1 (centres unmarked) [Compound 61] |
| 0.679 | Cc1nc2ccccn2c(=O)c1CCN1CCC(=C(c2ccc(F)cc2)c2cccc(F)c2)CC1 [Compound 36] |
| 1.4 | Cc1nc2n(c(=O)c1CCN1CCC(=C(c3ccc(Cl)cc3)c3ccc(Cl)cc3)CC1)CCCC2 [Compound 52] |
| 1.04 | Cc1nc2sccn2c(=O)c1CCN1CCC(=C(c2ccc(F)cc2)c2ccc(Br)cc2)CC1 [Compound 34] |
| 1.13 | Cc1nc2n(c(=O)c1CCN1CCC(=C(c3ccc(F)cc3)c3ccc(F)cc3)CC1)CCCS2 [Compound 114] |
| 0.362 | Cc1nc2sccn2c(=O)c1CCN1CCC(=C(c2ccccc2)c2ccccc2)CC1 [Compound 4] |
| < 1.33 | Cc1nc2scc(C)n2c(=O)c1CCN1CCC(=C(c2ccccc2)c2ccc(F)cc2)CC1 [Compound 117] |
| 1.32 | Cc1nc2n(c(=O)c1CCN1CCC(=C(c3ccc(F)cc3)c3ccc(Br)cc3)CC1)CCCC2 [Compound 35] |
| 1.08 | Cc1nc2n(c(=O)c1CCN1CCC(=C(c3ccccc3)c3ccccc3)CC1)CCS2 [Compound 107, 6-[2-[4-(diphenylmethylene)-1-piperidinyl]ethyl]-2,3-dihydro-7-methyl-5H-thiazolo[3,2-a]pyrimidin-5-one dihydrochloride] |
| 1.17 | Cc1nc2n(c(=O)c1CCN1CCC(=C(c3ccc(F)cc3)c3cccc(F)c3)CC1)CCS2 [Compound 28] |
| < 1.45 | Cc1nc2ccccn2c(=O)c1CCN1CCC(=C(c2ccccc2)c2ccccc2)CC1 [Compound 18] |
| 2.74 | Cc1nc2scc(C)n2c(=O)c1CCN1CCC(=C(c2ccc(F)cc2)c2cccnc2)CC1 [Compound 124] |
| 2.25 | COc1ccc(C(=C2CCN(CCc3c(C)nc4n(c3=O)CCCS4)CC2)c2ccc(F)cc2)cc1 [Compound 145, 7-[2-[4-[(4-fluorophenyl)(4-methoxyphenyl)methylene]-1-piperidinyl]ethyl]-3,4-dihydro-8-methyl-2H,6H-pyrimido[2,1-b][1,3]thiazin-6-one dihydrochloride] |
| 2.54 | Cc1nc2n(c(=O)c1CCN1CCC(=C(c3ccc(Cl)cc3)c3ccc(Cl)cc3)CC1)CCS2 [Compound 110, 6-[2-[4-[bis(4-chlorophenyl)methylene]-1-piperidinyl]ethyl]-2,3-dihydro-7-methyl-5H-thiazolo[3,2-a]pyrimidin-5-one] |
| 1.53 | Cc1ccc(C(=C2CCN(CCc3c(C)nc4ccccn4c3=O)CC2)c2ccc(C)cc2)cc1 [Compound 43] |
| 2.36 | Cc1nc2n(c(=O)c1CCN1CCC(=C(c3ccc(F)cc3)c3cccc(C(F)(F)F)c3)CC1)CCS2 [Compound 118] |
| 2.6 | Cc1cc(C)n2c(=O)c(CCN3CCC(=C(c4ccc(F)cc4)c4ccc(F)cc4)CC3)c(C)nc2c1 [Compound 55] |
| 5.44 | Cc1nc2n(c(=O)c1CCN1CCC(=C(c3ccccc3)c3ccc(O)cc3)CC1)CCS2 [Compound 73] |
| 0.702 | Cc1nc2scc(C)n2c(=O)c1CCN1CCC(=C(c2ccccc2)c2ccccc2)CC1 [Compound 105, 6-[2-[4-(diphenylmethylene)-1-piperidinyl]ethyl]-3,7-dimethyl-5H-thiazolo[3,2-a]pyrimidin-5-one] |
